# According to patent US20260021092A1, “STRUCTURE-BASED DESIGN OF A NOVEL CLASS OF DRUGS FOR NEURODEGENERATIVE DISEASE” (The Regents of the University of California, priority 2022, published 2026):
# Entries after “also recorded” stand apart in the source; their conditions may differ.
# Experiments:
# [1] = biological target: T1, recombinant alpha-synuclein fibrils (Homo sapiens, UniProt P37840); test: TEM quantification of recombinant alpha-synuclein fibrils; format: biochemical; details: 72 hours with compound, 10 micrographs
# T1 construct: made in house; host or cells: E. coli BL21(DE3) Gold
# Experimental: (§1) Both compounds were incubated with equimolar ratios of recombinant alpha-synuclein fibrils (100 μM:100 μM) for 48 hours at 37° C. in 1×PBS. After incubation, Thioflavin T (ThT), a fluorescent marker of amyloid fibrils, was added to the samples and ThT fluorescence was measured. EGCG was used as a positive control for comparison. […] Next, transmission electron microscopy (EM) was performed for each sample. […] To obtain a quantitative evaluation of fibril reduction, fibrils were first incubated for 72 hours with compound, then 10 micrographs from random grid points were taken for each sample, and the numbers of fibrils per image were counted (FIG. 5c). […] Western blot analysis, staining for alpha-synuclein, was performed for fibril samples incubated with compounds for 48 hours (FIG. 5d). For untreated alpha-synuclein fibrils, we see a prominent band at 14 kDa corresponding with protein monomer. […]
# For all transmission electron microscopy (TEM), 6 μL of sample were added onto 400 mesh Formvar Carbon film copper mesh grids (Electron Microscopy Sciences), then incubated for four minutes. […] For quantitation of fibrils, […] TEM images were taken per experimental condition from random points throughout the grid. Fibril counts were manually quantified per image in a blinded fashion. […]
# [2] = biological target: T1, recombinant alpha-synuclein fibrils; test: Western blot of alpha-synuclein fibrils treated with compound; format: biochemical; details: 48 hours with compound
# Experimental: as §1
# Samples were loaded onto a NuPAGE 12% Bis-Tris pre-cast protein gel and ran for 35 minutes at 200 V. To transfer protein from the gel to a nitrocellulose membrane an iBLOT2 dry blotting system was used. […] Signal was detected with Pierce ECL Plus Western Blotting Substrate (Cat #32132), and blot was imaged with a Pharos FX Plus Molecular Imager.
# α-synuclein fibrils = α-synuclein fibrils (Homo sapiens, UniProt P37840); test: Table A function: disaggregators of amyloid fibrils (alpha-synuclein)
# [3] = system: AD brain-derived tau fibrils; test: Dot blot of AD tau aggregates with antibody GT38 during EGCG incubation; format: biochemical, human; details: EGCG incubation 1, 3, 6 and 24 hours at 37°
# Experimental: Brain-derived tau PHFs were incubated with 80 μM EGCG at 37° C. in PBS various lengths of time. Samples were spotted onto nitrocellulose membrane, 20 μL were spotted for each condition, spotting 2 μL at a time and allowing to dry in between. Membrane was blocked for 1 hour in TBST with 5% milk and washed with TBST three times. Membrane was then incubated with primary antibody (either anti-tau GT38 (obtained from Virginia Lee lab at UPenn) or anti-phospho-tau AT8 (cat #MN1020, lot #UL2906281Z), 1:4000 dilution in 2% milk/TBST solution) for 1 hour, washed three times with TBST, incubated with horseradish peroxidase-conjugated secondary antibody (goat anti-mouse IgG H and L (HRP); 1:5000 Dilution in 2% milk/TBST), and washed three times in TBST. Signal was detected with Pierce ECL Plus Western Blotting Substrate (cat #32132), and blot was imaged with a Pharos FX Plus Molecular Imager.
# [4] = system: AD brain-derived tau fibrils; test: Negative-stain EM and quantitative EM (qEM) of tau fibrils after compound incubation
# Experimental: We then scrutinized the four CNS-Set inhibitors by quantitative EM (qEM) imaging (FIG. 3c, see Methods).
# Negatively stained EM Grids were prepared by depositing 6 μl of sample on formvar/carbon coated copper grids (400 mesh) for 3 min with. Sample was rapidly wicked using filter paper without drying the grid, and stained with 1% uranyl acetate for 2 min. […] Fibrils were counted from collections of 33 micrographs (in triplicate) for each experimental condition.
# [5] = biological target: AD-tau fibrils seeding HEK293 cells expressing tau-K18 P301S-eYFP (Homo sapiens, UniProt P10636); test: Tau biosensor cell seeding assay; format: cell-based; parameters: dose or concentration left out as unconfirmed; details: screen; final inhibitor concentration on the biosensor cells
# AD-tau fibrils seeding HEK293 cells expressing tau-K18 P301S-eYFP, sequence (P10636 623-695 limits assumed, stated change not applied): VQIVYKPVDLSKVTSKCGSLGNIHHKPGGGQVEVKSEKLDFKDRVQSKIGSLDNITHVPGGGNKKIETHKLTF
# Experimental: Disaggregating molecules that produce active seeds are undesirable for therapy and are excluded from further study. HEK293T cells expressing CFP- or YFP-fused tau are transduced with exogenous AD tau fibrils.
# Inhibitors were dissolved in DMSO. […] The number of seeded aggregates was determined by imaging the entire well of a 96-well plate in triplicate using a Celigo Image Cytometer (Nexcelom) in the YFP channel. […] The number of aggregates was normalized to the confluence of each well, and dose-response plots were generated by calculating the average and standard deviations from triplicate measurements.
# [6] = system: Neuro-2a (N2a) neuronal cells; test: MTT cell viability assay of N2a cells treated with alpha-synuclein fibrils; format: cell-based; details: final alpha-synuclein fibril concentration of 1 μM, various compound concentrations
# Experimental: Alpha-synuclein aggregates, particularly oligomers, are known to be cytotoxic to neurons^4. Thus, we next determined if disaggregation of alpha-synuclein aggregates by our compounds mitigates their cytotoxicity. […] The fibril and compound mixtures were then added to cultured Neuro-2a (N2a) neuronal cells, to a final alpha-synuclein fibril concentration of 1 μM.
# All experiments were performed in triplicate. […] Removal from the incubator and replacement of well media with 100 μL of 100% DMSO halted the assay. Absorbance was measured at 570 nm using a SpectraMax M5 reader. A background reading at 700 nm was subtracted from the 570 nm reading. Well readings were normalized to vehicle alone treated cells (designated as 100% viable) and cells treated with 100% DMSO (designated as 0% viable).
Compound,number of imaged fibrils per EM image [1],higher molecular weight alpha-synuclein species by Western blot [2],Function (α-synuclein fibrils),time at which reduction in GT38-positive tau aggregate level begins [3],appearance of fibrils in negative stain electron micrographs ([4]; 3-hour EGCG incubation),appearance of fibrils in negative stain electron micrographs ([4]; 24 hours of EGCG incubation),fibrils seen by electron microscopy (qualitative) ([4]; tau fibrils treated with each compound),inhibition of seeding in tau biosensor cells (in words) [5],rescue of alpha-synuclein fibril cytotoxicity [6]
"Cc1cccc(C)c1NC(=O)Cn1nc(Cc2ccccc2)c2ccccc2c1=O [CNS-11g, 2-(4-benzyl-1-oxophthalazin-2-yl)-N-(2,6-dimethylphenyl)acetamide]",reduction in number of imaged fibrils,reduction in the higher molecular weight species,Dissociate α- synuclein fibrils,,,,,,
"O=C(O[C@@H]1Cc2c(O)cc(O)cc2O[C@@H]1c1cc(O)c(O)c(O)c1)c1cc(O)c(O)c(O)c1 [EGCG, epigallocatechin gallate]",,,,1 to 3 h,largely intact but somewhat swollen,nearly gone,Few fibrils,prevents the formation of any seeds,
"Cc1cc(C)c(NC(=O)Cn2nc3c4c(cccc4c2=O)-c2ccccc2-3)c(C)c1 [CNS-11, N-mesityl-2-(3-oxoindeno[1,2,3-de]phthalazin-2(3H)-yl)acetamide]",reduction in number of imaged fibrils,reduction in the higher molecular weight species,,,,,,,no rescue of toxicity at any concentration; also recorded: unable to rescue
